In patent US20140303092A1 (CHIMERIX, INC., priority 2011, published 2014):

Experiment: Study HDP-CDV-201: safety and tolerability (adverse events, laboratory abnormalities, discontinuations)
Type: in vivo, human (adult allogeneic HSCT recipients)
Method: Clinical Studies of HDP-CDV were performed and described in detail in the following Examples. For example, HDP-CDV-201 is a placebo-controlled, dose-escalating trial in HSCT CMV (R+) recipients, evaluating the ability of HDP-CDV to prevent or control CMV infection was carried out. Five cohorts were established in which participants or subjects received either placebo or the HDP-CDV orally, in doses ranging from 40 mg weekly (QW) to 200 mg twice weekly (BIW). Subjects who were post-HSCT were enrolled at the time of engraftment and randomized to HDP-CDV or placebo (3 to 1 ratio) and received blinded therapy until approximately 100 day post-transplantation. HDP-CDV doses were 40 mg QW, 100 mg QW, 200 mg QW, 200 mg BIW and 100 mg BIW. Escalation to the next dose was decided by the data monitoring committee after review of the safety data from the previous Cohort. Subjects who developed CMV disease or CMV infection requiring pre-emptive therapy with local standard of care were discontinued from blinded therapy and followed for 4 weeks. Subjects who completed treatment with blinded therapy were followed for 8 weeks post-therapy.
Data from Study HDP-CDV-201 also provided characterization of the safety and tolerability profile of HDP-CDV when administered for the prevention or control of CMV infection in high risk (R^+) post-HSCT adult subjects.
The Safety population (SAFETY) included all randomized subjects who took at least one dose of study treatment. This population was used to summarize safety outcomes based on the treatment actually received, in cases where a subject was treated contrary to the randomization schedule.
The safety and tolerability profile of HDP-CDV, including subject demographics and Baseline characteristics; the AE profile; and laboratory abnormalities of interest were analyzed in the cohorts followed in this investigation.
Subjects completing the treatment period received a full course of study medication; those completing the entire study attended visits through 8 weeks of follow up. Subjects who discontinued treatment may have done so for protocol specified reasons (e.g. development of clinically significant CMV infection requiring preemptive treatment with excluded anti-CMV medications) or for other reasons (e.g., withdrawal, adverse events, loss to follow-up). The disposition of subjects in Study HDP-CDV-201 during the double-blind, placebo-controlled treatment period (through Week 11) is listed by dosing Cohort in TABLE 23.
Adverse events were examined by severity to ensure that all safety signals were identified in this study population. Because of the frequency of events in HSCT recipients, particular attention was given to evaluation of Grade 3 […], 4 (severe), and 5 (fatal) adverse events.
Only those preferred terms for which at least one Grade 3 or higher event was experienced in any treatment group are listed. Cytomegalovirus-related AEs are excluded from this analysis.
HDP-CDV is a lipid conjugate of CDV. Because CDV is known to have adverse effects on renal function and bone marrow, decreased GFR and persistent neutropenia were identified as AEs of special interest. Key renal and hematological (TABLE 30) laboratory parameters were measured and listed below by Study HDP-CDV-201 treatment groups. TABLE 30 includes abnormal levels of serum creatinine, neutrophils, platelets, WBCs, and hemoglobin and includes data at Screening and during the treatment period.
A common metric for unit based dosing of medications is by weight (mg/kg). When the distribution of weights was examined for all subjects participating in the study, the median was 78 kg and the lower 25th percentile weight was approximately 65 kg, which translates to a cut-off of ˜3 mg/kg for a 200 mg total weekly dose. Based upon this approach, a cut-off of 3 mg/kg was used to assess the frequency of diarrhea and associated GI AEs reported for the subjects in Cohorts 3 or 4a (TABLE 40).

CCCCCCCCCCCCCCCCOCCCOP(=O)(O)COC(CO)Cn1ccc(N)nc1=O (stereo not drawn) [HDP-CDV]
TEAE Hypokalaemia, Grade 3 (100 mg BIW): 2 (4.0%)
TEAE Hypokalaemia, Grade 4 (100 mg BIW): 0
TEAE Hypokalaemia, Grade 5 (100 mg BIW): 0
TEAE Hyponatraemia, Frequency (100 mg BIW): 1 (2.0%)
TEAE Hyponatraemia, Grade 2 (100 mg BIW): 0
TEAE Hyponatraemia, Grade 3 (100 mg BIW): 0
TEAE Hyponatraemia, Grade 4 (100 mg BIW): 0
TEAE Hyponatraemia, Grade 5 (100 mg BIW): 0
TEAE LFT Abnormal, Frequency (100 mg BIW): 2 (4.0%)
TEAE LFT Abnormal, Grade 2 (100 mg BIW): 1 (2.0%)
TEAE LFT Abnormal, Grade 3 (100 mg BIW): 0
TEAE LFT Abnormal, Grade 4 (100 mg BIW): 0
TEAE LFT Abnormal, Grade 5 (100 mg BIW): 0
TEAE Leukocytosis, Frequency (100 mg BIW): 2 (4.0%)
TEAE Leukocytosis, Grade 2 (100 mg BIW): 0
TEAE Leukocytosis, Grade 3 (100 mg BIW): 1 (2.0%)
TEAE Leukocytosis, Grade 4 (100 mg BIW): 0
TEAE Leukocytosis, Grade 5 (100 mg BIW): 0
TEAE Nausea, Frequency (100 mg BIW): 17 (34.0%)
TEAE Nausea, Grade 2 (100 mg BIW): 9 (18.0%)
TEAE Nausea, Grade 3 (100 mg BIW): 2 (4.0%)
TEAE Nausea, Grade 4 (100 mg BIW): 0
TEAE Nausea, Grade 5 (100 mg BIW): 0
TEAE Neutropenia, Frequency (100 mg BIW): 10 (20.0%)
TEAE Neutropenia, Grade 2 (100 mg BIW): 2 (4.0%)
TEAE Neutropenia, Grade 3 (100 mg BIW): 5 (10.0%)
TEAE Neutropenia, Grade 4 (100 mg BIW): 2 (4.0%)
TEAE Neutropenia, Grade 5 (100 mg BIW): 0
TEAE Pneumonia, Frequency (100 mg BIW): 5 (10.0%)
TEAE Pneumonia, Grade 2 (100 mg BIW): 1 (2.0%)
TEAE Pneumonia, Grade 3 (100 mg BIW): 3 (6.0%)
TEAE Pneumonia, Grade 4 (100 mg BIW): 0
TEAE Pneumonia, Grade 5 (100 mg BIW): 1 (2.0%)
TEAE Pyrexia, Frequency (100 mg BIW): 10 (20.0%)
TEAE Pyrexia, Grade 2 (100 mg BIW): 4 (8.0%)
TEAE Pyrexia, Grade 3 (100 mg BIW): 1 (2%)
TEAE Pyrexia, Grade 4 (100 mg BIW): 0
TEAE Pyrexia, Grade 5 (100 mg BIW): 0
TEAE Renal Failure, Frequency (100 mg BIW): 5 (10.0%)
TEAE Renal Failure, Grade 2 (100 mg BIW): 1 (2.0%)
TEAE Renal Failure, Grade 3 (100 mg BIW): 1 (2.0%)
TEAE Renal Failure, Grade 4 (100 mg BIW): 1 (2.0%)
TEAE Renal Failure, Grade 5 (100 mg BIW): 0
TEAE Staphylococcal Bacteremia, Frequency (100 mg BIW): 6 (12.0%)
TEAE Staphylococcal Bacteremia, Grade 2 (100 mg BIW): 2 (4.0%)
TEAE Staphylococcal Bacteremia, Grade 3 (100 mg BIW): 3 (6.0%)
TEAE Staphylococcal Bacteremia, Grade 4 (100 mg BIW): 0
TEAE Staphylococcal Bacteremia, Grade 5 (100 mg BIW): 0
TEAE Thrombocytopenia, Frequency (100 mg BIW): 7 (14.0%)
TEAE Thrombocytopenia, Grade 2 (100 mg BIW): 1 (2.0%)
TEAE Thrombocytopenia, Grade 3 (100 mg BIW): 1 (2.0%)
TEAE Thrombocytopenia, Grade 4 (100 mg BIW): 2 (4.0%)
TEAE Thrombocytopenia, Grade 5 (100 mg BIW): 0
TEAE Vomiting, Frequency (100 mg BIW): 22 (44.0%)
TEAE Vomiting, Grade 2 (100 mg BIW): 8 (16.0%)
TEAE Vomiting, Grade 3 (100 mg BIW): 2 (4.0%)
TEAE Vomiting, Grade 4 (100 mg BIW): 0
TEAE Vomiting, Grade 5 (100 mg BIW): 0
subjects requiring treatment with steroids during the study (100 mg BIW): 72%
subjects who interrupted HDP-CDV due to an adverse event (100 mg BIW Cohort): 17 out of 50
Subjects Reporting Diarrhea as an AE (100 mg BIW, n = 50): 26 (52.0%)
Discontinuation: Death (100 mg BIW, active treatment period): 4 (8.0%) Subject n (%)
Discontinuation: Adverse event (100 mg BIW, active treatment period through Week 11): 8 (16.0%) Subject n (%)
TEAE ALT increased, Frequency (100 mg QW): 1 (3.7%)
TEAE ALT increased, Grade 2 (100 mg QW): 0
TEAE ALT increased, Grade 3 (100 mg QW): 1 (3.7%)
TEAE ALT increased, Grade 4 (100 mg QW): 0
TEAE ALT increased, Grade 5 (100 mg QW): 0
TEAE AML, Recurrent, Frequency (100 mg QW): 0
TEAE AML, Recurrent, Grade 2 (100 mg QW): 0
TEAE AML, Recurrent, Grade 3 (100 mg QW): 0
TEAE AML, Recurrent, Grade 4 (100 mg QW): 0
TEAE AML, Recurrent, Grade 5 (100 mg QW): 0
TEAE AST increased, Frequency (100 mg QW): 1 (3.7%)
TEAE AST increased, Grade 2 (100 mg QW): 1 (3.7%)
TEAE AST increased, Grade 3 (100 mg QW): 0
TEAE AST increased, Grade 4 (100 mg QW): 0
TEAE AST increased, Grade 5 (100 mg QW): 0
TEAE Abdominal pain, Frequency (100 mg QW): 2 (7.4%)
TEAE Abdominal pain, Grade 2 (100 mg QW): 0
TEAE Abdominal pain, Grade 3 (100 mg QW): 1 (3.7%)
TEAE Abdominal pain, Grade 4 (100 mg QW): 0
TEAE Abdominal pain, Grade 5 (100 mg QW): 0
TEAE Acute GVHD, Frequency (100 mg QW): 7 (25.5%)
TEAE Acute GVHD, Grade 2 (100 mg QW): 4 (14.8%)
TEAE Acute GVHD, Grade 3 (100 mg QW): 2 (7.3%)
TEAE Arthralgias, Frequency (100 mg QW): 3 (11.1%)
TEAE Arthralgias, Grade 2 (100 mg QW): 0
TEAE Arthralgias, Grade 3 (100 mg QW): 0
TEAE Arthralgias, Grade 4 (100 mg QW): 0
TEAE Arthralgias, Grade 5 (100 mg QW): 0
TEAE Back Pain, Frequency (100 mg QW): 2 (7.4%)
TEAE Back Pain, Grade 2 (100 mg QW): 0
TEAE Back Pain, Grade 3 (100 mg QW): 0
TEAE Back Pain, Grade 4 (100 mg QW): 0
TEAE Back Pain, Grade 5 (100 mg QW): 0
TEAE Decreased appetite, Frequency (100 mg QW): 5 (18.5%)
TEAE Decreased appetite, Grade 2 (100 mg QW): 2 (7.4%)
TEAE Decreased appetite, Grade 3 (100 mg QW): 0
TEAE Decreased appetite, Grade 4 (100 mg QW): 0
TEAE Decreased appetite, Grade 5 (100 mg QW): 0
TEAE Diarrhea, Frequency (100 mg QW): 8 (29.6%)
TEAE Diarrhea, Grade 2 (100 mg QW): 3 (11.1%)
TEAE Diarrhea, Grade 3 (100 mg QW): 0
TEAE Diarrhea, Grade 4 (100 mg QW): 0
TEAE Diarrhea, Grade 5 (100 mg QW): 0
TEAE Fatigue, Frequency (100 mg QW): 3 (11.1%)
TEAE Fatigue, Grade 2 (100 mg QW): 0
TEAE Fatigue, Grade 3 (100 mg QW): 0
TEAE Fatigue, Grade 4 (100 mg QW): 0
TEAE Fatigue, Grade 5 (100 mg QW): 0
